Test results: patent publication US20170119775A1, “TREATMENT OF COGNITIVE DISORDERS” (Algiax Pharmaceuticals GmbH, priority 2014, published 2017)

Experiments:
[1] = Plasma Tmax after oral administration; format: in vivo
[2] = tested on: male Wistar rats; assay: Xylazine/ketamine-induced anesthesia test (surrogate measure of emesis); format: in vivo, rat; conditions: for relative recovery time (duration of anesthesia, vehicle set at 100%), mean: 3.5 h before induction of anesthesia
Description: The mechanism of the emetic response associated with PDE4-Is is thought to be a consequence of the inhibition of PDE4 in non-target tissues. It is believed that PDE4-Is produce a pharmacological response analogous to that of presynaptic α2-adrenoreceptor inhibition by elevating intracellular levels of cAMP in noradrenergic neurons. Therefore, by removing an inhibitory mechanism, PDE4-Is are thought to modulate the release of mediators including 5-HT, substance P and noradrenaline involved in the onset of the emetic reflex mediated at emetic brainstem centers. PDE4-Is have the ability to reverse α2-adrenoreceptor agonist-mediated anesthesia with xylazine/ketamine in rodents (Robichaud et al., 2002). This effect is very likely mediated at the locus coeruleus in the brain stem. This confirms the postulate that PDE4-Is have effects similar to those of a2-adrenoreceptor antagonists. Since rodents are non-vomiting species, the ability of a PDE4-I to shorten a2-adrenergic receptor-mediated xylazine/ketamine anesthesia is therefore used as well-established surrogate measure of emesis in rodents.
(§1) Twenty four 3-4 month old male Wistar rats (Charles River, Sulzfeld, Germany) were used (average body weight at the beginning of the study: 365 g). All animals were housed individually in standard green line Tecniplast IVC cages on sawdust bedding. The animals were housed on a reversed 12/12-h light/dark cycle (lights on from 19:00 h to 07:00 h) and had free access to food and water. The rats were housed and tested in the same room. A radio, playing softly, provided background noise in the room. All testing was performed between 09:00 h and 18:00 h.
AP-61 was dissolved in 0.5% methylcellulose (MC) and 2% Tween 80. […] (injection volume was 2 ml/kg). […] The emetic properties of the PDE4-I rolipram are already assessed (Bruno et al., 2011). In the current study rolipram was used as a reference compound for AP-61 and applied in at dosages of 0.1 and 0.3 mg/kg. Rolipram was dissolved in 0.5% MC and 2% tween 80 (injection volume 2 ml/kg, route of administration was p.o.). For the induction of anesthesia, 10 mg/kg ketamine (Eurovet Animal Health, The Netherlands) and 10 mg/kg xylazine (CEVA Santé Animale, The Netherlands) were used (both administered i.p.). All solutions were prepared daily.
Rats were anesthetized with a combination of xylazine and ketamine (both 10 mg/kg, i.p). Fifteen minutes after induction of the anesthesia, rats were treated with rolipram or vehicle (0.1 or 0.3 mg/kg, p.o.) and the animals were placed in a dorsal position. The restoration of the righting reflex, i.e. when the animal no longer remained on its back and turned itself spontaneously to the prone position, was used as an endpoint to determine the duration of anesthesia. Animals that were not anesthetized after 15 min were excluded from the analysis.
AP-61 reached peak concentration at 5 h after oral administration. Because of this, induction of anesthesia with the combination of xylazine and ketamine was done 3.5 h after oral administration of AP-61. Animals were then placed in a dorsal position. The time delay to the recovery of the righting reflex was used as an endpoint to measure the duration of the anesthesia. Again, animals that were not anesthetized after 15 min were excluded from the analysis.
The restoration of the righting reflex, i.e. when the animal no longer remained on its back and turned itself spontaneously to the prone position (standing on four paws), was used as an endpoint to determine the duration to the anesthesia. Each test day a vehicle group was included. Outliers were removed from the analysis (Dixon-test). Each daily vehicle was set at 100% while the other treatment conditions of that day were expressed as a percentage of the vehicle. The following formula was used:
Duration of anesthesia after drug treatment (min)×(100/mean of duration of anesthesia of vehicle treatment (min)) […]

[3] = tested on: male Wistar rats; assay: Object recognition task (ORT), natural forgetting, 24-h interval; format: in vivo, rat; conditions: 24 h delay, mean (SEM)
Description: In example 1, the compound AP-61 a 7-(4-tert butyl-cyclohexyl)-imidazotriazione (a compound of the formula II) was tested in the ORT in 3-4 month old male Wistar rats using a 24-h interval between the trials to induce natural forgetting.
as §1, with “One group of twenty” for “Twenty”
AP-61 was dissolved in 0.5% methylcellulose (MC) and 2% Tween 80. The solutions were prepared daily. Doses of 0.01, 0.03 and 0.1 mg/kg of AP-61 or vehicle were administered p.o. (injection volume was 2 ml/kg), immediately after T1. […]
A testing session comprised two trials, each with durations of 3 min. […] The times spent in exploring each object during T1 and T2 were recorded manually with a personal computer. […]
The measures were the times spent by rats in exploring each object during T1 and T2. […] From these exploration times the following variables were calculated: e1, e2 and d2 (Table 1). […]

Structure (SMILES)	Tmax [1] [h]	relative recovery time (duration of anesthesia, vehicle set at 100%), mean ([2]; AP61 0.03 mg/kg p.o.) [%]	relative recovery time (duration of anesthesia, vehicle set at 100%), mean ([2]; AP61 0.1 mg/kg p.o.) [%]	relative recovery time (duration of anesthesia, vehicle set at 100%), mean ([2]; AP61 3.0 mg/kg p.o.) [%]	effect on duration of xylazine/ketamine-induced anesthesia compared with vehicle (summary) ([2]; AP-61 0.03-3.0 mg/kg p.o., all doses)	emetic properties / gastrointestinal toxicity (conclusion) ([2]; AP-61, all doses tested, within the effective dose range)	d2, discrimination index between the new and familiar objects for T2 ([3]; AP61 0.01 mg/kg p.o. immediately after T1)	d2, discrimination index between the new and familiar objects for T2 ([3]; AP61 0.1 mg/kg p.o. immediately after T1)	effect on duration of the xylazine/ketamine-induced anesthesia (summary) ([2]; oral rolipram, 2 mg/kg, 15 min after induction of anesthesia (so in the source))
CCc1nc(C2CCC(C(C)(C)C)CC2)n2nc(-c3ccccc3)[nH]c(=O)c12 (stereo not drawn) [AP61, 7-(4-tert-butylcyclohexyl)-5-ethyl-2-phenylimidazo[5,1-f][1,2,4]triazin-4(3H)-one]	5	97.16	107.16	108.37	none of the doses led to a shortened duration	does not show any signs of gastrointestinal toxicity	0.10 (0.09)	0.01 (0.08)	–
COc1ccc(C2CNC(=O)C2)cc1OC1CCCC1 (stereo not drawn) [rolipram, reference compound]	–	–	–	–	–	–	–	–	significant reduction
